Measured values as given in EP4790046A1, “NOVEL COMPOUND DERIVED FROM MYRISTICA FRAGRANS, AND ANTICANCER COMPOSITION COMPRISING SAME” (Korea Institute of Science and Technology, priority 2023, dated 2025).

Legend:
[1] = test system: AGS; test: alamarBlue cell viability (survival rate, IC50), AGS; assay type: cell-based; details: Homo sapiens; AGS (gastric cancer), compound 10 µM, 48 hours; read-out: Cancer cell line survival rate (%)
Excerpt: (§1) A p-value < 0.05 was considered statistically significant.

[2] = test system: 23132/87; test: alamarBlue cell viability (survival rate, IC50), 23132/87; assay type: cell-based; details: 23132/87 (gastric cancer), compound 10 µM, 48 hours; read-out: Cancer cell line survival rate (%)
Excerpt: as §1

[3] = test system: SNU-719; test: alamarBlue cell viability (survival rate, IC50), SNU-719; assay type: cell-based; details: SNU-719 (gastric cancer), compound 10 µM, 48 hours; read-out: Cancer cell line survival rate (%)
Excerpt: as §1

[4] = test system: SNU-81; test: alamarBlue cell viability (survival rate, IC50), SNU-81; assay type: cell-based; details: SNU-81 (colorectal cancer), compound 10 µM, 48 hours; read-out: Cancer cell line survival rate (%)
Excerpt: as §1

[5] = test system: SNU-C5; test: alamarBlue cell viability (survival rate, IC50), SNU-C5; assay type: cell-based; details: SNU-C5 (colorectal cancer), compound 10 µM, 48 hours; read-out: Cancer cell line survival rate (%)
Excerpt: as §1

[6] = test system: SW48; test: alamarBlue cell viability (survival rate, IC50), SW48; assay type: cell-based; details: Homo sapiens; SW48 (colorectal cancer), compound 10 µM, 48 hours; read-out: Cancer cell line survival rate (%)
Excerpt: as §1

[7] = test system: SNU201; test: alamarBlue cell viability (survival rate), SNU201; assay type: cell-based; details: SNU201 (glioblastoma), compound 10 µM, 48 hours; read-out: Cancer cell line survival rate (%)
Excerpt: as §1

[8] = test system: SNU466; test: alamarBlue cell viability (survival rate), SNU466; assay type: cell-based; details: SNU466 (glioblastoma), compound 10 µM, 48 hours; read-out: Cancer cell line survival rate (%)
Excerpt: as §1

[9] = test system: HepG2; test: alamarBlue cell viability (survival rate), HepG2; assay type: cell-based; details: Homo sapiens; HepG2 (liver cancer), compound 10 µM, 48 hours; read-out: Cancer cell line survival rate (%)
Excerpt: as §1

[10] = test system: MiaPaCa-2; test: alamarBlue cell viability (survival rate), MiaPaCa-2; assay type: cell-based; details: Homo sapiens, MIA PaCa-2; MiaPaCa-2 (pancreatic cancer), compound 10 µM, 48 hours; read-out: Cancer cell line survival rate (%)
Excerpt: as §1

[11] = test system: various cancer cell lines; test: alamarBlue cell viability, statements across the cell line panel; details: for anticancer activity: various cancer cell lines
Method: AGS, SW48, HepG2, and MiaPaCa-2 was purchased from ATCC (American Type Culture Collection, USA), SNU cell lines from the Korean Cell Line Bank (KCLB, Korea), and 23132/87 from the Leibniz Institute DSMZ - German Collection of Microorganisms and Cell Cultures GmbH (DSMZ, Germany). All cell lines were cultured in RPMI-1640 medium (HyClone, USA) supplemented with 10% FBS (Gibco, USA) and 1% penicillin-streptomycin (HyClone, USA) under conditions of 5% CO2, 37°C.
Cells were seeded at a density of 5 × 10^3cells/well in a 96-well plate for 24 hours, then treated with the compound at an appropriate concentration (10 µM) for 48 hours. After treatment, alamarBlue reagent was added at a volume ratio of 1/10 of the treatment volume and incubated for 4 hours in a 37°C cell incubator (protected from direct light). Cell viability was then determined by measuring absorbance values at 570 nm and 600 nm using a microplate reader. The anticancer effects of candidate compounds were evaluated by assessing the cell viability (%) of cells treated at specific concentrations and the half-maximal inhibitory concentration (IC50) of each natural product. Doxorubicin and oxaliplatin were used as positive controls for gastric and colorectal cancer, respectively.
Statistical analysis was performed using R software (version 4.2.2) (R Core Team). Differences between groups were assessed using student's t-test or 1-way ANOVA followed by post-hoc Tukey HSD test. A p-value < 0.05 was considered statistically significant.
Further, to measure the IC50 values against six cancer cell lines.

Row | SMILES | viability at 10 µM [1] [%] | viability at 10 µM [2] [%] | viability at 10 µM [3] [%] | viability at 10 µM [4] [%] | viability at 10 µM [5] [%] | viability at 10 µM [6] [%] | viability at 10 µM [7] [%] | viability at 10 µM [8] [%] | viability at 10 µM [9] [%] | viability at 10 µM [10] [%] | anticancer activity [11] | cytotoxic effects ([11]; gastric cancer cell lines and colorectal cancer cell lines, 10 µM, 48 hours)
1 | COc1ccc(/C=C/Cc2ccc(O)c(C(=O)CCCCCCCCc3ccc(O)c(O)c3)c2O)cc1OC [Compound 21, Myricone Z] | 6.86 | 2.4 | 4.6 | 33.6 | 6.53 | 3.51 | 67.8 | 0.95 | 6.05 | 7.58 | high anticancer activity | 
2 | C=CCc1cc(OC)c(O[C@@H](C)[C@H](Oc2cc(CCCCCCCCC(=O)c3c(O)cccc3O)ccc2O)c2ccc(O)c(OC)c2)c(OC)c1 [Compound 10, Myricone K] | 4.14 | 2.77 | 1.85 | 16.1 | 4.94 | 2.67 | 3.28 | 0.6 | 8.7 | 4.3 | high anticancer activity | 
3 | C=CCc1cc(OC)c(O[C@H](C)[C@H](Oc2cc(CCCCCCCCC(=O)c3c(O)cccc3O)ccc2O)c2ccc(O)c(OC)c2)c(OC)c1 [Compound 11, Myricone L] | 20.3 | 19 | 12.5 | 92.5 | 13.4 | 5.57 | 32.8 | 0.52 | 25.3 | 22 | high anticancer activity | excellent cytotoxic effects
